The values that follow come from patent US20140023611A1 (priority 2010, published 2014).

Where only a bound is given, the exact number is not on record here.

In this test the target is T1, rat NaP2b (SLC34A2) (Rattus norvegicus, UniProt Q9JJ09).
T1 construct: host or cells: HEK293
T1 sequence (Q9JJ09 1-695): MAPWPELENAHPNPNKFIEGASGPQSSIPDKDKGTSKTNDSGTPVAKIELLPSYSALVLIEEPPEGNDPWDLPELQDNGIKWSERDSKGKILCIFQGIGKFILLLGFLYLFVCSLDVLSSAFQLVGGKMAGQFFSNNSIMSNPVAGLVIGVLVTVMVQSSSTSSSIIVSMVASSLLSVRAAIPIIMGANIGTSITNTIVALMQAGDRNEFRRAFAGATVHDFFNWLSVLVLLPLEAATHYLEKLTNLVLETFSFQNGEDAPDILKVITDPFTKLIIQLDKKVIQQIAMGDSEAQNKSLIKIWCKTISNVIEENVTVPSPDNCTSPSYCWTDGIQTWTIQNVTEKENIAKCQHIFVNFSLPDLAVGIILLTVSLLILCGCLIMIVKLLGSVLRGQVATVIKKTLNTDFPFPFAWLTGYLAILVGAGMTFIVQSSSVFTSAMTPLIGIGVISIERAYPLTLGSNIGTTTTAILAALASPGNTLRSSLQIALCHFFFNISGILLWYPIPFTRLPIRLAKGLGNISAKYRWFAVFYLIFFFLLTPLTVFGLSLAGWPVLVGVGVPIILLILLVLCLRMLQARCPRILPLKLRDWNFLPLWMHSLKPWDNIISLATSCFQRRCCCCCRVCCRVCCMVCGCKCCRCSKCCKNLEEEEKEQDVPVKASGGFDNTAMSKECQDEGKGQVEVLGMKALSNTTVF
The experiment in a line: Inhibition of NaP2b-mediated Pi (33P) uptake in transfected HEK293 cells, rat NaP2b. To be noted: 33P Pi uptake, 0.1 mM phosphate, value given as pIC50 range. It is filed as cell-based. The method, boiled down: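 The cells transiently expressed NaP2b after Lipofectamine transfection. Each compound was run in duplicate over twelve concentrations, 0.1 nM–30 uM.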
One may read the IC50 as the midpoint of a concentration-inhibition curve. A high value points to weaker potency. Molecule `O=C(O)CCOCCOCCOCCOCCOCCOCCOCCOCCSCc1cccc(C(=O)Nc2ccc(N3CCCCC3)cc2-c2cc(C(=O)NCc3cccc(C(F)(F)F)c3)ccn2)c1` [Example 8.22] showed an IC50 of 1 to 7.94 µM.
With `O=C(O)CCSCc1cccc(C(=O)Nc2ccc(N3CCCCC3)cc2-c2cc(OCc3cccc(C(F)(F)F)c3)ccn2)c1` [Example 98] the figure was 10 to 31.6 µM; with `Cc1cccc(CNc2cc(-c3cc(N4CCCCC4)ccc3NC(=O)c3cccc(CSCCC(=O)O)c3)ncn2)c1` [Example 3.2, 3-((3-((4-(Piperidin-1-yl)-2-(6-((3-methylbenzyl)amino)pyrimidin-4-yl)phenyl)carbamoyl)benzyl)thio)propanoic acid], 10 to 31.6 µM.
With `CCN(CC)CCN(C)C(=O)c1cccc(SCc2cccc(C(=O)Nc3ccc(N4CCCCC4)cc3-c3cc(C(=O)NCc4cccc(C(F)(F)F)c4)ccn3)c2)c1` [Example 10.8] the figure was 10 to 31.6 µM; with `CC(=O)NC1CCN(C(=O)c2cccc(C(=O)Nc3ccc(N4CCCCC4)cc3-c3cc(C(=O)NCc4cccc(C(F)(F)F)c4)ccn3)c2)CC1` [Example 4.7, 2-(2-(3-(4-Acetamidopiperidine-1-carbonyl)benzamido)-5-(piperidin-1-yl)phenyl)-N-(3-(trifluoromethyl)benzyl)isonicotinamide], 10 to 31.6 µM; with `CC(=O)N1CCN(C(=O)c2cccc(C(=O)Nc3ccc(N4CCCCC4)cc3-c3cc(C(=O)NCc4cccc(C(F)(F)F)c4)ccn3)c2)CC1` [Example 4.6, 2-(2-(3-(4-Acetylpiperazine-1-carbonyl)benzamido)-5-(piperidin-1-yl)phenyl)-N-(3-(trifluoromethyl)benzyl)isonicotinamide], 10 to 31.6 µM.
In the case of `CCN(CC)c1ccc(NC(=O)c2cccc(CCCOCCOCCOCCOCCNC(=O)c3ccc(O)cc3)c2)c(-c2cc(C(=O)N[C@H]3CCCc4ccccc43)ccn2)c1` [Example 325] it was less than 1 µM.
`COc1ccccc1CNC(=O)c1ccnc(-c2cc(N3CCCCC3)ccc2NC(=O)c2cccc(C(=O)N(C)CCN3CCOCC3)c2)c1` [Example 124, N1-(2-(4-((2-methoxybenzyl)carbamoyl)pyridin-2-yl)-4-(piperidin-1-yl)phenyl)-N3-methyl-N3-(2-morpholinoethyl)isophthalamide]: the IC50 was 1 to 7.94 µM.
In the case of `O=C(NCc1cccc(C(F)(F)F)c1)c1ccnc(-c2cc(N3CCCCC3)ccc2NC(=O)c2cccc(CSCCCCO)c2)c1` [Example 8.4], the IC50 is 1 to 7.94 µM.
In the case of `O=C(O)CCNC(=O)Cc1cccc(SCc2cccc(C(=O)Nc3ccc(N4CCCCC4)cc3-c3cc(C(=O)NCc4cccc(C(F)(F)F)c4)ccn3)c2)c1` [Example 140] it was 1 to 7.94 µM; in that of `COCCNC(=O)N1CCN(CCN(C)Cc2cccc(C(=O)Nc3ccc(N4CCCCC4)cc3-c3cc(C(=O)NCc4cccc(C(F)(F)F)c4)ccn3)c2)CC1` [Example 208, N-(2-methoxyethyl)-4-(2-(methyl(3-(4-(piperidin-1-yl)-2-(4-(3-(trifluoromethyl)benzylcarbamoyl)pyridin-2-yl)phenylcarbamoyl)benzyl)amino)ethyl)piperazine-1-carboxamide], 10 to 31.6 µM; in that of `COCCOCCOCCOCCOCCOCCOCCN(C)C(=O)C1CCN(CCN(C)C(=O)c2cccc(C(=O)Nc3ccc(N4CCCCC4)cc3-c3cc(C(=O)N[C@H]4CCCc5ccccc54)ccn3)c2)CC1` [Example 334, (S)—N^1-(2-(4-(2,5,8,11,14,17,20-Heptaoxadocosan-22-yl(methyl)carbamoyl)piperidin-1-yl)ethyl)-N1-methyl-N3-(4-(piperidin-1-yl)-2-(4-(1,2,3,4-tetrahydronaphthalen-1-ylcarbamoyl)pyridin-2-yl)phenyl)isophthalamide], 10 to 31.6 µM.
With `CC(C)OCCOc1ccc(NC(=O)c2cccc(C(=O)N(C)CCN3CCOCC3)c2)c(-c2cc(C(=O)NCc3cccc(C(F)(F)F)c3)ccn2)c1` [Example 101] the figure was 1 to 7.94 µM.
The molecule `O=C(O)c1ccc(SCc2cccc(C(=O)Nc3ccc(N4CCCCC4)cc3-c3cc(C(=O)NCc4cccc(C(F)(F)F)c4)ccn3)c2)cc1` [Example 8.23] showed an IC50 of 1 to 7.94 µM.
In turn, `O=C(O)CCSCc1cccc(C(=O)Nc2ccc(N3CCCCC3)cc2-c2cc(C(=O)NCc3cccc(-n4cccn4)c3)ccn2)c1` [Example 1.21] had an IC50 of 10 to 31.6 µM.
With `O=C(O)CCSCc1cccc(C(=O)Nc2ccc(N3CCCCC3)cc2-c2cc(OCc3cccc(C(F)(F)F)c3)ncn2)c1` [Example 3.8, 3-((3-((4-(Piperidin-1-yl)-2-(6-((3-(trifluoromethyl)benzyl)oxy)pyrimidin-4-yl)phenyl)carbamoyl)benzyl)thio)propanoic acid] the figure was 10 to 31.6 µM; with `CN(CCOCCOCCOCCC(=O)OC(C)(C)C)CCN(C)C(=O)c1cccc(C(=O)Nc2ccc(N3CCCCC3)cc2-c2cc(C(=O)N[C@H]3CCCc4ccccc43)ccn2)c1` [Example 329, tert-butyl 3-methyl-1-[N-methyl-1-(3-{[4-(piperidin-1-yl)-2-(4-{[(1S)-1,2,3,4-tetrahydronaphthalen-1-yl]carbamoyl}pyridin-2-yl)phenyl]carbamoyl}phenyl)formamido]-6,9,12-trioxa-3-azapentadecan-15-oate], 1 to 7.94 µM; with `O=C(O)CCSCc1cccc(C(=O)Nc2ccc(N3CCCCC3)cc2-c2cc(C(=O)Nc3cccc(C(F)(F)F)c3)ccn2)c1` [Example 84], 1 to 7.94 µM.
With `CN(CCN1CCOCC1)C(=O)c1cccc(C(=O)Nc2ccc(N3CC[C@H]4CCCC[C@@H]4C3)cc2-c2cc(C(=O)NCc3cccc(C(F)(F)F)c3)ccn2)c1` [Example 111] the figure was 10 to 31.6 µM; with `O=C(O)CCOCCOCCOCCOCCCc1cccc(C(=O)Nc2ccc(OC3CCCC3)cc2-c2cc(C(=O)N[C@H]3CCCc4ccccc43)ccn2)c1` [Example 347, (S)-16-(3-(4-(cyclopentyloxy)-2-(4-(1,2,3,4-tetrahydronaphthalen-1-ylcarbamoyl)pyridin-2-yl)phenylcarbamoyl)phenyl)-4,7,10,13-tetraoxahexadecan-1-oic acid], less than 1 µM; with `CN(CCN1CCOCC1)C(=O)c1cccc(C(=O)Nc2ccc(N3CCC(C)(C)CC3)cc2-c2cc(C(=O)NCc3cccc(C(F)(F)F)c3)ccn2)c1` [Example 108], 10 to 31.6 µM.
Molecule `CCN(CC)c1ccc(NC(=O)c2cccc(CCCOCCOCCOCCOCCNC(=O)c3cscn3)c2)c(-c2cc(C(=O)N[C@H]3CCCc4ccccc43)ccn2)c1` [Example 326] had an IC50 of less than 1 µM.
With `O=C(CCSCc1cccc(C(=O)Nc2ccc(N3CCCCC3)cc2-c2cc(C(=O)NCc3cccc(C(F)(F)F)c3)ccn2)c1)NCCN1CCOCC1` [Example 4.16, 2-(2-(3-(((3-((2-Morpholinoethyl)amino)-3-oxopropyl)thio)methyl)benzamido)-5-(piperidin-1-yl)phenyl)-N-(3-(trifluoromethyl)benzyl)isonicotinamide] the figure was 10 to 31.6 µM; with `CCN(CC)c1ccc(NC(=O)c2cccc(CCCOCCOCCOCCOCCNS(=O)(=O)c3ccc(C(=O)N4CCN(CCOCCOCCOCCOCCOCCOCCOC)C(=O)C4)cc3)c2)c(-c2cc(C(=O)NCc3cccc(C(F)(F)F)c3)ccn2)c1` [Example 288, 2-(2-(3-(1-(4-(4-(2,5,8,11,14,17,20-heptaoxadocosan-22-yl)-3-oxopiperazine-1-carbonyl)phenylsulfonamido)-3,6,9,12-tetraoxapentadecan-15-yl)benzamido)-5-(diethylamino)phenyl)-N-(3-(trifluoromethyl)benzyl)isonicotinamide], 1 to 7.94 µM; with `O=C(O)CCSCc1cccc(C(=O)Nc2ccc(N3CCCCC3)cc2-c2cc(C(=O)NCc3ccc(Cl)c(C(F)(F)F)c3)ccn2)c1` [Example 1.33], 1 to 7.94 µM.
In the case of `Cc1ccc(CNC(=O)c2ccnc(-c3cc(N4CCCCC4)ccc3NC(=O)c3cccc(CSCCC(=O)O)c3)c2)cc1C` [Example 1.49] it was 1 to 7.94 µM; in that of `O=C(O)COc1cccc(SCc2cccc(C(=O)Nc3ccc(N4CCCCC4)cc3-c3cc(C(=O)NCc4cccc(C(F)(F)F)c4)ccn3)c2)c1` [Example 134, 2-(3-(3-(4-(piperidin-1-yl)-2-(4-(3-(trifluoromethyl)benzylcarbamoyl)pyridin-2-yl)phenylcarbamoyl)benzylthio)phenoxy)acetic acid], 1 to 7.94 µM; in that of `CN(CCN1CCOCC1)C(=O)c1cccc(C(=O)Nc2ccc(N3CCSCC3)cc2-c2cc(C(=O)NCc3cccc(C(F)(F)F)c3)ccn2)c1` [Example 118], 1 to 7.94 µM.
In the case of `CN(CCN1CCOCC1)C(=O)c1cccc(C(=O)Nc2ccc(N3CCCCC3)cc2-c2cc(NCc3cccc(C(F)(F)F)c3)ccn2)c1` [Example 104] it was 10 to 31.6 µM; in that of `O=C(NCc1cccc(C(F)(F)F)c1)c1ccnc(-c2cc(N3CCCCC3)ccc2NC(=O)c2cccc(C(=O)N(CCN3CCOCC3)Cc3ccccc3)c2)c1` [Example 4.12, N1-Benzyl-N1-(2-morpholinoethyl)-N3-(4-(piperidin-1-yl)-2-(4-((3-(trifluoromethyl)benzyl)carbamoyl)pyridin-2-yl)phenyl)isophthalamide], 1 to 7.94 µM.
